Experiment [1] concerns the target T1, HIV-1 IN (Human immunodeficiency virus type 1 group M subtype B, UniProt P04585). In words: HIV-1 IN in vitro concerted integration assay (processed or unprocessed donor DNA). To be noted: for differential effect between reactions: strand transfer / processed donor versus 3′processing / unprocessed donor: comparison of concerted integration and 3′processing results; for inhibitory efficiency compared with raltegravir: concerted integration; for inhibitory efficiency compared with raltegravir / inhibition of concerted integration from processed and unprocessed donor: increasing concentrations.

The next experiment deals with T2, MOS1 (Drosophila mauritiana, UniProt Q7JQ07).
T2 construct: involving the full-length Mos1 transposase (MOS1) was recently solved; made in house
T2 sequence (Q7JQ07 whole entry): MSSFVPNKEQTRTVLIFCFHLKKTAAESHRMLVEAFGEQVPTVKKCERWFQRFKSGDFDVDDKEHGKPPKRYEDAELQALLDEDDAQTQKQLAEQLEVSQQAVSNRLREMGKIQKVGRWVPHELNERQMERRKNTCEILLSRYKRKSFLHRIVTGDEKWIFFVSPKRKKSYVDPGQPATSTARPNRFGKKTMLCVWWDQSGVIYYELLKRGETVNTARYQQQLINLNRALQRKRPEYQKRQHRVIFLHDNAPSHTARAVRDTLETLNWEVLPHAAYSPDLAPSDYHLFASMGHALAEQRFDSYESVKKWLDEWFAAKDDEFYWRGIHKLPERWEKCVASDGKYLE
In words: MOS1 in vitro activities, overall statements of the discussion. It counts as biochemical, D. mauritiana. To be noted: in vitro assays of MOS1 activities; discussion. Here is the method: (§1) In vitro transposition reactions were performed using pBC-3T3 as both the donor DNA and the target, as previously described. Briefly, the basic transposition reaction mixtures contained 10 mM Tris-HCl (pH 9), 50 mM NaCl, 20 mM MgCl2, 0.5 mM EDTA, 5% glycerol, 5 ng/ml BSA, 600 ng pBC-3T3, and 80 nM purified MBP-MOS1 (added last) in a volume of 20 µl. Inhibitors (25 or 10 µM, as specified) or DMSO (2%) were added to the reaction mixtures before the transposase. The reactions were allowed to proceed for 30 min at 30°C. After phenol-chloroform extraction and ethanol precipitation, 10% of the reaction mixture was transformed in electro-competent JM109 E. coli (2 mm cuvette, 1.5 kV in a MicroPulser™BioRad). Appropriate dilutions of each reaction mixture were plated on LB-tetracycline (12.5 µg/ml) agar and LB-chloramphenicol (80 µg/ml) agar to score the transposition rate. The transposition rate was the number of Tet^R colonies divided by the number of Chloram^R plus Tet^R colonies. Each condition was done at least three times in independent experiments.
(§2) Basic excision reaction mixtures contained 10 mM Tris-HCl (pH 9), 50 mM NaCl, 20 mM MgCl2, 0.5 mM EDTA, 0.5 mM DTT, 100 ng BSA, 600 ng of super-coiled pBC-3T3, and 80 nM MBP-MOS1 (added last) in a volume of 20 µl. Molecules (25 or 10 µM, as specified) or DMSO (2%) were added to the reaction mixtures before the transposase. The reactions were allowed to proceed at 30°C for 30 min before 2 µl of stop solution (loading buffer) were added. The reaction mixtures were then incubated at 65°C for 10 min. Each reaction was analysed by overnight electrophoresis at 2.7 V/cm on a TAE-buffered 1% agarose gel with ethidium bromide (0.3 mg/ml). After electrophoresis, the gel was photographed on a transilluminator. ImageGauge 4.22 software (Fujifilm) was used to quantify the bands. Each condition was tested at least twice.
These assays were performed using pre-cleaved 3′ITRs (PC-ITR), i.e. ITRs in the configuration expected after excision. Double-strand ITRs were obtained by annealing equimolar amounts of 70-NTS-PN (5′[…]3′) and 70-TS-PC (5′[…]3′) single-strand oligonucleotides. Prior to annealing, the transferred strand (70-TS-PC) was 5′-end labelled using T4 polynucleotide kinase (Promega) and γ-^32P-ATP following the manufacturer's instructions. Oligonucleotides were provided by Eurofins MWG Biotech (Germany) or Eurogentec (Belgium). Reaction mixtures containing 10 mM Tris-HCl (pH 9), 50 mM NaCl, 1 mM DTT, 5% glycerol, 100 ng BSA, 100 nM of labelled PC-ITR and 100 nM MBP-MOS1 in a final volume of 20 µl were incubated at 30°C for 30 min. The pBC plasmid (which contained the cat gene, a hot-spot for Mos1 insertion) was then added to 30 ng/µL along with 5 mM MgCl2. Molecules (25 or 10 µM, as specified) or DMSO (2%) were added to the reaction mixtures along with the target DNA to estimate their effect on integration. Reactions were carried out for 3 hours at 30°C. 0.1 mg/ml proteinase K and 0.1% SDS were added to stop the reaction. DNA products were purified by phenol-chloroform extraction and ethanol precipitated using standard techniques. DNA products were resuspended in DNA loading buffer, then separated onto a 1% agarose gel in 1X TAE (Tris Acetate EDTA) buffer. The gel was dried onto a nitrocellulose membrane (Hybond N+, GE Healthcare), scanned using a Storm, and analysed with ImageQuant software. Signals were quantified using ImageQuant software. Efficiency of integration was calculated as the intensity of the integration signal divided by the intensity of free target signal plus integration signal. Each condition was tested at least twice.
All molecules were also tested in in vitro assays reproducing integration and excision reactions catalysed by MOS1. […] In contrast, E-resveratrol and E-ε-viniferin glucoside, which act more specifically on HIV-1 3′processing reaction, and E-piceid and E-pterostilbene, which is more efficient on the integration reaction, were not active on MOS1.

The subject of experiment [2] is VSV-G pseudotyped lentiviruses. It counts as cell-based. As to conditions: 10 µM.
Experiment [3] has as its system VSV-G pseudotyped lentiviruses. It counts as cell-based.
Experiment [4] has as its target T1, HIV-1 IN. Description: HIV-1 IN 3′processing assay. It counts as biochemical. To be noted: 600 nM IN; increasing concentrations.
For experiment [5], the target named is T3, Mos1 transposase (MOS1) (Drosophila mauritiana, UniProt Q7JQ07).
T3 construct: involving the full-length Mos1 transposase (MOS1) was recently solved; made in house
T3 sequence (Q7JQ07 whole entry): as above
In words: MOS1 in vitro transposition assay (genetic hop experiment). It counts as biochemical, D. mauritiana. Here is the method: The wild type Mos1 transposase (MOS1: 345 amino acids) was produced and purified as a fusion protein linked to the maltose-binding protein by using the pMal-c2 system (New England Biolabs) and following the manufacturer's instructions.
as §1
To identify the natural stilbenes active on MOS1, the 17 molecules were tested using an in vitro genetic “hop” experiment, which is the most sensitive test available as yet. Purified MOS1 was incubated with the pBC-3T3 plasmid, which was used both as the transposon donor and the target plasmid. This plasmid contains the pBR322 tetracycline resistance gene (without promoter) framed by two Mos1 ITRs. This reconstitutes a pseudo-Mos1 element named 3T3. We took advantage of the fact that the cat gene (present in the pBC backbone) is a hotspot for Mos1 integration. […] Transposition events were recovered by bacterial transformation with selection for tetracycline resistance, as a gain-of-function landmark for transposition. […] Controls correspond to assays performed without molecule but with DMSO, which is routinely used as the solvent. […] To confirm the efficiency of the six molecules, they were similarly assayed at 10 µM ( figure 6B ). Since they appeared to be still active at 10 µM, they were further characterized in order to identify the targeted step of the transposition cycle.

For experiment [6], the target named is T3, Mos1 transposase (MOS1). In words: MOS1 in vitro excision assay. It counts as biochemical, D. mauritiana. Here is the method: as §2
The ability of the selected molecules to inhibit excision was tested in vitro using the pBC-3T3 plasmid as the transposon donor. MOS1 triggers the excision of the pseudo-Mos1 from the plasmid producing two linear DNA fragments, the transposon and the plasmid backbone, together with intermediate products (open circle plasmids which contained single strand nicks and linear plasmids which contained a double strand nick at one ITR). After excision, the transposon could be reintegrated, making it difficult to detect in electrophoresis. The activity of the molecules was measured by quantifying the plasmid backbone, the end product of the reaction. The assays were performed with final concentrations of 25 and 10 µM molecules. Controls correspond to assays performed without molecule but with DMSO. […] Reactions were performed at least twice for each selected molecules (leachianol G, leachianol F, quadrangularin A, hopeaphenol, vitisin B and pallidol) and the excision activity is reported in figure 7B . […] The six selected molecules were then tested for the integration step of Mos1 transposition.

For the next experiment, the system named is topoisomerase II. The arrangement: method as in PMID 16508191. To be noted: cited from earlier work.

pIC50: −log10 of the molar value. Some results are limits rather than exact numbers.

For `COc1cc(/C=C/c2ccc(O)cc2)cc(OC)c1` [E-pterostilbene], on HIV-1 IN [1], the “differential effect between reactions: strand transfer / processed donor versus 3′processing / unprocessed donor” value is given as “more active on strand transfer reaction than”; the “inhibitory efficiency compared with raltegravir” value is given as “inhibitory efficiencies close to raltegravir”; the “inhibition of concerted integration from processed and unprocessed donor” value is given as “inhibited both activities”. For the same molecule, the “activity on MOS1” value on MOS1 is “not active”. In experiment [2], the “1LTR circles amount” value was “no decrease”, the “2LTR circles DNA” value is “non significant increase”, the “integrated DNA amount” value is recorded as “slight but reproducible decrease” and the “total viral DNA amount” value is given as “No significant change”. Besides, in experiment [3], the “integration inhibition evaluated by GFP fluorescence” value is on record as “found to induce an integration inhibition”.

As usually defined, the inhibition is the share of the control response that was lost under treatment. A word on the pIC50: it is the IC50 on a negative log10 scale, so that one unit is a factor of ten. Read a high pIC50 as a low IC50. As to `Oc1ccc(C(O)C2c3cc(O)cc(O)c3[C@H](c3ccc(O)cc3)[C@H]2c2cc(O)cc(O)c2)cc1` (some centres unmarked) [leachianol F], the “inhibitory effect on 3′processing” value against HIV-1 IN [4] was “showed an inhibitory effect”. For the same molecule, the “activity against MOS1 in transposition assay” value at Mos1 transposase (MOS1) [5] (10 µM) is on record as “still active”. Besides, at Mos1 transposase (MOS1) [5] (25 µM, DMSO control as reference), the “inhibition of the whole MOS1 transposition activity” value is given as “over 50%”. Moreover, the “inhibition of concerted integration” value on HIV-1 IN [1] (50 µM, both activities (processed and unprocessed donor)) was 30–60%. Further, on HIV-1 IN [1], the “differential effect between reactions: strand transfer / processed donor versus 3′processing / unprocessed donor” value was “active on both reactions”; the “inhibitory efficiency compared with raltegravir” value is recorded as “inhibitory efficiencies close to raltegravir”; the “inhibition of concerted integration from processed and unprocessed donor” value was “inhibited both activities”. Besides, at MOS1, the “activity on MOS1” value is reported as “also active against MOS1 activities”. For the same molecule, the inhibition at 25 µM on Mos1 transposase (MOS1) [6] (25 µM, DMSO control as reference, read-out: inhibition of in vitro excision reaction) is over 50%. Also, the negative logarithm of the IC50 (pIC50) on Mos1 transposase (MOS1) [6] (concentration range, sigmoid dose-response fit) was 4.52. Further, the “topoisomerase II inhibition” value in the experiment with topoisomerase II is “potent topoisomerase II inhibitors”.

The values above are taken from paper PMC3842960, “Natural Stilbenoids Isolated from Grapevine Exhibiting Inhibitory Effects against HIV-1 Integrase and Eukaryote MOS1 Transposase In Vitro Activities” (PLoS ONE, 2013).
